In PMC12196251, “Synthesis of New DltA Inhibitors and Their Application as Adjuvant Antibiotics to Re-Sensitize Methicillin-Resistant Staphylococcus aureus” (Molecules, 2025):
“And” between values parts separate entries of the source, which are not always exact repeats. Identical values can stand only once. Counter-ions that a name gives are not always drawn. Like-named read-outs stand apart in the source and are kept apart here.

Legend:
MRSA clinical isolates = assay: MIC of imipenem against MRSA in absence or presence of DltA inhibitor; type: cell-based, S. aureus; settings: for MIC: Staphylococcus aureus, MRSA
Procedure: (§1) All these compounds were also tested […] against MRSA clinical isolates. […] The minimum inhibitory concentrations (MICs) of imipenem (IPM) were next determined in the absence or presence of 1 mM of the different DltA inhibitors to evaluate their potential to re-sensitize MRSA to this β-lactam (Table 2). […] To clarify this hypothesis, quantification of D-alanyl ester of the MRSA cell wall was performed as previously described in the presence of inhibitors (Table 2). […] These new series represent a promising structure entry not reported yet for the inhibition of DltA and the re-sensitization of bacteria toward known antibiotics.
Colonies from BHI agar plates were suspended in saline solution (0.9% NaCl) and adjusted to an OD600 of 0.5. For growth kinetics determination, 96-well microplates (Starlab, Orsay, France) containing 200 μL of fresh BHI medium were inoculated with bacterial suspensions to an OD600 of 0.02 with a wide range of DltA inhibitors (from 0 to 2 mM). Plates were incubated at 37 °C with shaking (orbital amplitude of 3 mm) in a microplate reader (InfiniteM Nano, Tecan, Seoul, Republic of Korean). OD600nm was measured every 10 min for 24 h. Determination of MIC/MBC of antibiotics and bacterial survival assays were performed as previously described using BHI medium. The DltA inhibitor was diluted in pure water and added to the growth medium to a final concentration of 0, 0.1, 0.25, 0.5, 0.75, or 1 mM.

[1] = biological target: T1, recombinant DltA from E. faecalis (Enterococcus faecalis, UniProt Q830N0); assay: DltA enzyme inhibition, PPi release coupled-enzyme assay; type: biochemical
T1 construct: made in house; host or cells: E. coli
T1 sequence (Q830N0 1-506): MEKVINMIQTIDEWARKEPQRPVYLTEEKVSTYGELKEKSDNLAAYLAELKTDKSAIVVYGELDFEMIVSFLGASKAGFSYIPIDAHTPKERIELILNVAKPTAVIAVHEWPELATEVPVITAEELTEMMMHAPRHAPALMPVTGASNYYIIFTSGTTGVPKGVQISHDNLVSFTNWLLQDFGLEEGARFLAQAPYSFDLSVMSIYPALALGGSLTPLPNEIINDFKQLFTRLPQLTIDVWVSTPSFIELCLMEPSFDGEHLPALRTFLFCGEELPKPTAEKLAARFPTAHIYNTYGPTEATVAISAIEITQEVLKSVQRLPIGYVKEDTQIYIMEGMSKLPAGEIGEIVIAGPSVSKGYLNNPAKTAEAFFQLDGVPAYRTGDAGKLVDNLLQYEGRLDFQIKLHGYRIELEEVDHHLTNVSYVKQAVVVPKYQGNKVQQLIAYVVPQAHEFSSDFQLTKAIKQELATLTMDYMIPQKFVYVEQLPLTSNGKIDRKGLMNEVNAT
Procedure: (§2) All new compounds were then evaluated in vitro for enzyme inhibition against recombinant DltA from E. faecalis or S. epidermis. Half-maximal inhibitory concentrations (IC50) were then determined by measuring the amount of PPi released at different inhibitor concentrations (Table 2). […] We noticed the DltA enzyme tolerated the presence of various modifications on the 2′-position, but the activity was inversely related to the size of the introduced group. […] Despite a good predicted binding affinity (−8.7 Kcal/mol), we hypothesize that the lower activity could be explained by the fact that the squaramide nitrogen atom might not be under its anionic form, as is the case with sulfamate 1.
(§3) The DltA-catalyzed ATP-hydrolysis reaction was monitored in vitro via PPi release (DltA +D-alanine +ATP → DltA-DAla-AMP +PPi) using a coupled-enzyme assay. The purified DltA was pretreated with DltC purified from E. coli to clear D-Ala-AMP already present in the enzyme preparation after expression in E. coli. Holo-DltC is the natural protein partner of DltA, and DltC purified from E. coli BL21 (DE3) contained 51% of this active form of DltC as determined by HPLC analysis. DltA was pretreated with DltC (ratio 1:1.2), incubated for 30 min at 37 °C and 30 min at 4 °C. Three successive washes were realized on Amicon Ultra-2 Centrifugal Filter Unit—Ultracel 30 membrane 30 kDa MWCO (Merck, Darmstadt, Germany) with elution buffer EB at 4 °C. The components of the coupled enzyme assay included 1.5 μM pre-treated DltA, 20 μM of ATP, and 14 μM of D-alanine. The half-maximal inhibitory concentration (IC50) of potential DltA inhibitors was determined by the addition of different concentrations of the synthesized molecules. PPi release was determined using the PiPer—Pyrophosphate assay kit (Invitrogen, Waltham, MA, USA) according to the recommendation of the supplier. Reactions were carried out in 96-well Chimney Style, non-binding Microplates with μClear Film Bottom (Greiner Bio-one, Frickenhausen, Germany). Plates were incubated at 37 °C for 5 h and read in a FlexStation 3 Multi-Mode plate reader (Molecular Devices, Silicon Valley, CA, USA), with λ excitation of 530 nm and λ emission of 590 nm. Experiments were conducted in sextuplicate, and the IC50 was determined by linear regression of the curve.

[2] = test system: D-alanyl ester of the MRSA cell wall; assay: Quantification of D-alanyl ester in the bacterial cell wall; type: cell-based, S. aureus; settings: inhibitor at 1 mM, value (spread)
Procedure: as §1
Ester-linked D-alanines were quantified as described previously, with the following modifications. Cultures were grown in 5 mL of BHI supplemented with DltA inhibitor to a final concentration of 0.05, 0.1, 0.25, 0.5, 0.75, or 1 mM for 16 h at 37 °C under shaking (120 rpm). Briefly, the quantification is based on the oxidation of a chromogen by H2O2 generated when free D-alanines are oxidized by a D-amino acid oxidase. Three independent experiments with duplicate samples were performed.

[3] = biological target: T2, recombinant DltA from S. epidermidis (Staphylococcus epidermidis, UniProt Q5HQN0); assay: DltA enzyme inhibition, PPi release coupled-enzyme assay; type: biochemical
T2 construct: made in house; host or cells: E. coli
T2 sequence (Q5HQN0 1-485): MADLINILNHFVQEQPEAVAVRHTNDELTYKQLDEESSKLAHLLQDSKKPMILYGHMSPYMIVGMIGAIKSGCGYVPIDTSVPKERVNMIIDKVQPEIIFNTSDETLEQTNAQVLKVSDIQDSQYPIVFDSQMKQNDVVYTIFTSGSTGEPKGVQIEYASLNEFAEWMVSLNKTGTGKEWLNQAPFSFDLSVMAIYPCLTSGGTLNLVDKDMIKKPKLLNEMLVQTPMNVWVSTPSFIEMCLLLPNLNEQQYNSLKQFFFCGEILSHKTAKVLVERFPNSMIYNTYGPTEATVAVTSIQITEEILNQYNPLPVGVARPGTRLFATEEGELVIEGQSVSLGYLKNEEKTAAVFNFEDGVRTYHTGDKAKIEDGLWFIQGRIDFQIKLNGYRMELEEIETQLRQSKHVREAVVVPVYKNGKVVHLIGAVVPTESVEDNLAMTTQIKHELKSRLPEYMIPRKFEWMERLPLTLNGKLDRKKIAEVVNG
Procedure: as §2, §3

[4] = S. aureus (MRSA), in presence of 1 mM of the DltA inhibitor, read-out: MIC of IPM
[5] = S. aureus (MRSA), in presence of 1 mM of the DltA inhibitor

MIC (MRSA clinical isolates; tested MRSA strain, no inhibitor, read-out: MIC of IPM in the absence of an inhibitor) [µg/mL] | Structure (SMILES) | MIC (MRSA clinical isolates; [4]) [µg/mL] | IC50 [1] [µM] | Reduction in D-Ala Ester Residues [2] | MIC of IPM (MRSA clinical isolates; [5]) [µg/mL] | IC50 [3] [µM] | MIC (MRSA clinical isolates; read-out: MIC of IPM, S. aureus (MRSA), in presence of 1 mM of the DltA inhibitor) [µg/mL] | IC50 ([3]; Dlt from S. epidermidis, PPi release, value (spread))
– | C[C@@H](N)C(=O)NS(=O)(=O)OC[C@H]1O[C@@H](n2cnc3c(N)ncnc32)[C@H](F)[C@@H]1O [Compound 8, ((2R,3R,4R,5R)-5-(6-amino-9H-purin-9-yl)-4-fluoro-3-hydroxytetrahydrofuran-2-yl)methyl (D-alanyl)sulfamate salt] | 16 | 2.6 | 0% | – | – | – | –
– | C[C@@H](N)C(=O)NS(=O)(=O)OC[C@H]1O[C@@H](n2cnc3c(N)ncnc32)[C@@H](N=[N+]=[N-])[C@@H]1O [Compound 9, ((2R,3S,4S,5R)-5-(6-amino-9H-purin-9-yl)-4-azido-3-hydroxytetrahydrofuran-2-yl)methyl (D-alanyl)sulfamate salt] | 8 | 3.8 | 74.9% and 74.9 (9.4) % | – | – | – | –
– | C[C@@H](N)C(=O)NS(=O)(=O)OC[C@H]1O[C@@H](n2cnc3c(N)ncnc32)[C@H](n2cc(CO[C@@H]3O[C@H](CO)[C@@H](O)[C@H](O)[C@H]3O)nn2)[C@@H]1O [Compound 11, ((2R,3S,4R,5R)-5-(6-amino-9H-purin-9-yl)-3-hydroxy-4-(4-((((2R,3R,4S,5S,6R)-3,4,5-trihydroxy-6-(hydroxymethyl)tetrahydro-2H-pyran-2-yl)oxy)methyl)-1H-1,2,3-triazol-1-yl)tetrahydrofuran-2-yl)methyl (D-alanyl)sulfamate salt] | 16 to 64 | – | 0% | 32 | 39.5 | – | –
– | CC(C)OP(=O)(OC(C)C)C(F)(F)/C=C/CO[C@@H]1[C@H](O)[C@@H](COS(=O)(=O)NC(=O)[C@@H](C)N)O[C@H]1n1cnc2c(N)ncnc21 [Compound 18, ((2R,3R,4R,5R)-5-(6-amino-9H-purin-9-yl)-4-(((E)-4-(diisopropoxyphosphoryl)-4,4-difluorobut-2-en-1-yl)oxy)-3-hydroxytetrahydrofuran-2-yl)methyl (D-alanyl)sulfamate salt] | – | – | 51.5% and 51.5 (14.2) % | – | 7.6 | 0.25 | –
– | C[C@@H](N)C(=O)Nc1c(NC[C@H]2O[C@@H](n3cnc4c(N)ncnc43)[C@H](O)[C@@H]2O)c(=O)c1=O [Compound 23, 5′-N-(N-D-alanyl]-(3-amino-cyclobut-3-ene-1,2-dione))aminodeoxy adenosine salt] | – | 28.4 | 11.5 (1.3) % | – | – | – | –
– | C[C@@H](N)C(=O)NS(=O)(=O)NC/C(CF)=C(\F)Cn1cnc2c(N)ncnc21 [Compound 38, (R,E)-2-amino-N-(N-(4-(6-amino-9H-purin-9-yl)-3-fluoro-2-(fluoromethyl)but-2-en-1-yl)sulfamoyl)propenamide salt] | 16 to 64 | – | 2% | 32 | > 100 | – | complete loss of the activity
– | CCCCCCC(=O)N[C@H](C)C(=O)c1cn(C[C@H]2O[C@@H](n3cnc4c(N)ncnc43)[C@H](O)[C@@H]2O)nn1 [Compound 51, N-((R)-1-(1-(((2R,3S,4R,5R)-5-(6-amino-9H-purin-9-yl)-3,4-dihydroxytetrahydrofuran-2-yl)methyl)-1H-1,2,3-triazol-4-yl)-1-oxopropan-2-yl)heptanamide salt] | 16 to 64 | – | 22.2 (5.0) % | 16 | 22.2 | – | –
– | C[C@@H](NC(=O)c1ccc(-c2ccccc2)cc1)C(=O)c1cn(C[C@H]2O[C@@H](n3cnc4c(N)ncnc43)[C@H](O)[C@@H]2O)nn1 [Compound 52, N-((R)-1-(1-(((2R,3S,4R,5R)-5-(6-amino-9H-purin-9-yl)-3,4-dihydroxytetrahydrofuran-2-yl)methyl)-1H-1,2,3-triazol-4-yl)-1-oxopropan-2-yl)-[1,1′-biphenyl]-4-carboxamide salt] | 8 | – | 16% and 16.0 (4.2) % | – | 12.4 | – | –
– | CCCCCCOc1ccc(C(=O)N[C@H](C)C(=O)c2cn(C[C@H]3O[C@@H](n4cnc5c(N)ncnc54)[C@H](O)[C@@H]3O)nn2)cc1 [Compound 53, N-((R)-1-(1-(((2R,3S,4R,5R)-5-(6-amino-9H-purin-9-yl)-3,4-dihydroxytetrahydrofuran-2-yl)methyl)-1H-1,2,3-triazol-4-yl)-1-oxopropan-2-yl)-4-(hexyloxy)benzamide salt] | 16 to 64 | – | 12.5 (14.0) % | 16 | 16 | – | –
– | C[C@@H](NC(=O)OCc1ccc([N+](=O)[O-])cc1)C(=O)c1cn(C[C@H]2O[C@@H](n3cnc4c(N)ncnc43)[C@H](O)[C@@H]2O)nn1 [Compound 54, 4-nitrobenzyl ((R)-1-(1-(((2R,3S,4R,5R)-5-(6-amino-9H-purin-9-yl)-3,4-dihydroxytetrahydrofuran-2-yl)methyl)-1H-1,2,3-triazol-4-yl)-1-oxopropan-2-yl)carbamate salt] | 16 to 64 | – | 0% | 16 | 21.9 | – | –
32 | C[C@@H](O)[C@H]1C(=O)N2C(C(=O)O)=C(SCCN=CN)C[C@H]12 [IPM, imipenem, reference compound] | – | – | – | – | – | – | –
